In patent US11566007B2, “Ras inhibitors” (Revolution Medicines, Inc., priority 2019, dated 2023) one finds IC50 data, which are given here for eleven compounds.

Several values for one entry are separate records, joined by “and”; a condition that tells them apart may be missing. Equal values may be shown once.

Holding throughout (assay type): biochemical
In assay [1] the target is NRAS Q61K (Homo sapiens (Human), UniProt P01111+P62937, Q61K). The assay is described as follows: Ras-Raf (BRAF RBD) disruption / FRET / MOA assay, NRAS Q61K. As to conditions: NRAS Q61K; Ras-Raf disruption/FRET/MOA assay; read-out: IC50* NRAS Q61K FRET data. Summed up:
(§1)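 TR-FRET disruption of nucleotide-loaded Ras binding to BRAF RBD via compound-driven ternary complex with cyclophilin A. Compound as 10-point 3-fold series from 30 μM final, 3 h at 25° C, then anti-His Eu-W1024 (10 nM) and anti-GST allophycocyanin (50 nM) for 1.5 h. IC50 from decreased FRET ratio versus DMSO.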

Assay [2] concerns the target KRAS WT (Homo sapiens (Human), UniProt P01116+P62937). The assay is described as follows: Ras-Raf (BRAF RBD) disruption / FRET / MOA assay, KRAS WT. Particulars: read-out: IC50* KRAS WT FRET data. Summed up:
(§2)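 Ras:RAF disruption was scored as a fall in TR-FRET ratio relative to DMSO. Compound ranged in 3-fold steps over 10 points from 30 μM final; incubation ran 3 h at 25° C, detection antibodies a further 1.5 h. Reported as IC50.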

Assay [3] concerns the target NRAS G12C (Homo sapiens (Human), UniProt P01111+P62937, G12C). The assay is described as follows: Ras-Raf (BRAF RBD) disruption / FRET / MOA assay, NRAS G12C. As to conditions: read-out: IC50* NRAS G12C FRET data. Summed up: as §2
Assay [4] concerns the target K-Ras G13C (Homo sapiens (Human), UniProt P01116+P62937, G13C). The assay is described as follows: Ras-Raf (BRAF RBD) disruption / FRET / MOA assay, KRAS G13C. As to conditions: KRAS G13C; Ras-Raf disruption/FRET/MOA assay; read-out: IC50* KRAS G13C FRET data. Summed up:
as §2

The target of assay [5] is KRAS Q61H (Homo sapiens (Human), UniProt P01116+P62937, Q61H). Put plainly: Ras-Raf (BRAF RBD) disruption / FRET / MOA assay, KRAS Q61H. Particulars: Ras-Raf disruption/FRET/MOA assay; class symbols; read-out: KRAS Q61H FRET data IC50. Summed up: as §1
For assay [6], the target named is K-Ras G12C (Homo sapiens (Human), UniProt P01116+P62937, G12C). The assay is described as follows: Ras-Raf (BRAF RBD) disruption / FRET / MOA assay, KRAS G12C. Particulars: KRAS G12C; Ras-Raf disruption/FRET/MOA assay; read-out: IC50* KRAS G12C FRET data. Summed up:
as §2

The target of assay [7] is NRAS Q61R (Homo sapiens (Human), UniProt P01111+P62937, Q61R). Put plainly: Ras-Raf (BRAF RBD) disruption / FRET / MOA assay, NRAS Q61R. Particulars: NRAS Q61R; Ras-Raf disruption/FRET/MOA assay; read-out: IC50* NRAS Q61R FRET data. Summed up:
as §1

The target in assay [8] is KRAS G12D (Homo sapiens (Human), UniProt P01116+P62937, G12D). Put plainly: Ras-Raf (BRAF RBD) disruption / FRET / MOA assay, KRAS G12D. As to conditions: Ras-Raf disruption/FRET/MOA assay; class symbols; read-out: KRAS G12D FRET data IC50. Summed up: as §2
Assay [9] has as its target KRAS G13D (Homo sapiens (Human), UniProt P01116+P62937, G13D). Put plainly: Ras-Raf (BRAF RBD) disruption / FRET / MOA assay, KRAS G13D. Particulars: read-out: IC50* KRAS G13D FRET data. The method, boiled down: as §2
The target in assay [10] is KRAS G12S (Homo sapiens (Human), UniProt P01116+P62937, G12S). Put plainly: Ras-Raf (BRAF RBD) disruption / FRET / MOA assay, KRAS G12S. Particulars: Ras-Raf disruption/FRET/MOA assay; class symbols; read-out: KRAS G12S FRET data IC50. The method, boiled down: as §2
Chain of KRAS G12S (P01116-2 other isoform, or with tags, fused parts or gaps G12S): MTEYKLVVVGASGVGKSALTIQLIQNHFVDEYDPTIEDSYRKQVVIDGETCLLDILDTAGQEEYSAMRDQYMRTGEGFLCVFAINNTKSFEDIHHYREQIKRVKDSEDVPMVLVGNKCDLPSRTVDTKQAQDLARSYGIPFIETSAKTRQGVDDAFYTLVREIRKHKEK
Chain of KRAS G12S (P62937 whole entry): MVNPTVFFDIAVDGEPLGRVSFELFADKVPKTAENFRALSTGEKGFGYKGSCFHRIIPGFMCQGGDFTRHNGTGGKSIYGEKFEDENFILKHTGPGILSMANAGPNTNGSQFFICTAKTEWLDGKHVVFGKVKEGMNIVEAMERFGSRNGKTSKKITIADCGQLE

Chain of NRAS Q61K (P01111 whole entry Q61K): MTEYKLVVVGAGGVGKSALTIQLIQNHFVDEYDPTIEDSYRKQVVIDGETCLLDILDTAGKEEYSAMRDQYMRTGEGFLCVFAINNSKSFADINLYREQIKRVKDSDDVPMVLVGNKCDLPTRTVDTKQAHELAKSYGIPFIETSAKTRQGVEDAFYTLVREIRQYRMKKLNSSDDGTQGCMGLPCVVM
Chain of NRAS Q61K (P62937 whole entry): as the sequence (P62937 whole entry) above
Chain of KRAS WT (P01116-2 other isoform, or with tags, fused parts or gaps): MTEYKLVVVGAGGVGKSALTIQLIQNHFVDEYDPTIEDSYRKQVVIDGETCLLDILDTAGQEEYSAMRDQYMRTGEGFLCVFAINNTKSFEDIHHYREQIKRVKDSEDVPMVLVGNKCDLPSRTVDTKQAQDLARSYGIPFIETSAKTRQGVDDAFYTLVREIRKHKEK
Chain of KRAS WT (P62937 whole entry): as the sequence (P62937 whole entry) above
Chain of NRAS G12C (P01111 whole entry G12C): as the sequence (P01111 whole entry Q61K) above, with G12C, K61Q counted along it
Chain of NRAS G12C (P62937 whole entry): as the sequence (P62937 whole entry) above
Chain of KRAS G13D (P01116-2 other isoform, or with tags, fused parts or gaps G13D): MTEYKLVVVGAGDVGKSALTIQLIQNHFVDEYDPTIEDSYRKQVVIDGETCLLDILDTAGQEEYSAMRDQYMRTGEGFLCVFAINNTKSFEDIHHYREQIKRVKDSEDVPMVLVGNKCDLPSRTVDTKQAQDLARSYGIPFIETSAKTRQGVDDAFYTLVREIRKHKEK
Chain of KRAS G13D (P62937 whole entry): as the sequence (P62937 whole entry) above
Chain of KRAS G12D (P01116-2 other isoform, or with tags, fused parts or gaps G12D): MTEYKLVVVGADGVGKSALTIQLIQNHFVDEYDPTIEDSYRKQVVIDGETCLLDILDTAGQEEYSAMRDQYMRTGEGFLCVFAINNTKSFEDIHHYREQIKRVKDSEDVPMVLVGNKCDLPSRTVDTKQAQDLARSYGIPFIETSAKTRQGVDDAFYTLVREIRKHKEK
Chain of KRAS G12D (P62937 whole entry): as the sequence (P62937 whole entry) above
Chain of K-Ras G12C (P01116-2 other isoform, or with tags, fused parts or gaps G12C): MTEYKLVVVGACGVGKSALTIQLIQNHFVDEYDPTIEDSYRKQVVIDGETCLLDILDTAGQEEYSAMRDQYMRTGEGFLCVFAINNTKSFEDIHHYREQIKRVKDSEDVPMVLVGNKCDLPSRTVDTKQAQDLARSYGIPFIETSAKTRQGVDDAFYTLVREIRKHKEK
Chain of K-Ras G12C (P62937 whole entry): as the sequence (P62937 whole entry) above
Chain of KRAS Q61H (P01116-2 other isoform, or with tags, fused parts or gaps Q61H): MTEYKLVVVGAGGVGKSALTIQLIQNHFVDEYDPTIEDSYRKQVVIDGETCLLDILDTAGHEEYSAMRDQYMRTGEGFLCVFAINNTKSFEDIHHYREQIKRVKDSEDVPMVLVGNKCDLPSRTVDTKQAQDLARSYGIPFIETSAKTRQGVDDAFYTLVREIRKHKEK
Chain of KRAS Q61H (P62937 whole entry): as the sequence (P62937 whole entry) above
Chain of NRAS Q61R (P01111 whole entry Q61R): as the sequence (P01111 whole entry Q61K) above, with K61R counted along it
Chain of NRAS Q61R (P62937 whole entry): as the sequence (P62937 whole entry) above
Chain of K-Ras G13C (P01116-2 other isoform, or with tags, fused parts or gaps G13C): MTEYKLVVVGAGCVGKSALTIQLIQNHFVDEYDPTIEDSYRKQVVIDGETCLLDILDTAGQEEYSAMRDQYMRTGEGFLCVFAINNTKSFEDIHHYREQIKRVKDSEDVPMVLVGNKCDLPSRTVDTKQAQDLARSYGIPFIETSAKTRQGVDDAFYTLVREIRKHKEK
Chain of K-Ras G13C (P62937 whole entry): as the sequence (P62937 whole entry) above

For the compound `C=CC(=O)N1CC[C@H](C(=O)N(C)[C@H](C(=O)N[C@H]2Cc3cc(O)cc(c3)-c3ccc4c(c3)c(c(-c3cccnc3[C@H](CC)OC)n4CC)CC(C)(C)COC(=O)[C@@H]3CCCN(N3)C2=O)C(C)C)C1` (atropisomer, axis not shown) [Example A181], the IC50 (as a rule, the concentration that inhibits the measured activity by half) is 100 to 1000 nM in [1]; 100 to 1000 nM and 1000 to 10000 nM in assay [2]; 10 to 100 nM and 100 to 1000 nM in assay [3]; 100 to 1000 nM and 1000 to 10000 nM in assay [4]; 10 to 100 nM in assay [5]; 10 to 100 nM and 100 to 1000 nM in assay [6]. Moreover, the 50% inhibitory concentration (IC50) in assay [7] is 100 to 1000 nM; in assay [8], 1000 to 10000 nM and > 10000 nM; in assay [9], 100 to 1000 nM and 1000 to 10000 nM; in assay [10] it was 1000 to 10000 nM and 10 to 100 nM.
On to `C=CC(=O)N1CC[C@H](C(=O)N(C)[C@H](C(=O)N[C@H]2Cc3nc(ns3)-c3ccc4c(c3)c(c(-c3cccnc3[C@H](C)OC)n4CC)CC(C)(C)COC(=O)[C@@H]3CCCN(N3)C2=O)C(C)C)C1` (atropisomer, axis not shown) [Example A202], for which the IC50 in assay [1] is 1000 to 10000 nM; in assay [2], over 10000 nM; in assay [3], 1000 to 10000 nM; in assay [4] it was over 10000 nM; in assay [5], 1000 to 10000 nM; in [6] it was 1000 to 10000 nM. The IC50 in assay [7] is over 10000 nM; in assay [8], over 10000 nM; in assay [9] it was over 10000 nM; in assay [10], 1000 to 10000 nM.
Turning to `C=CC(=O)N1CC[C@H](C(=O)N(C)[C@H](C(=O)N[C@H]2Cc3cc(O)cc(c3)-c3ccc4c(c3)c(c(-c3cccnc3[C@@H](OC)C3CC3)n4CC)CC(C)(C)COC(=O)[C@@H]3CCCN(N3)C2=O)C(C)C)C1` (atropisomer, axis not shown) [Example A207], the half-maximal inhibitory concentration (IC50) in assay [1] lay within 100 to 1000 nM; in assay [2], 100 to 1000 nM; in assay [3], 10 to 100 nM; in assay [4], 100 to 1000 nM; in [5], 10 to 100 nM; in [6], 10 to 100 nM. Besides, the concentration for half-maximal inhibition (IC50) lay in the range of 100 to 1000 nM in assay [7], 1000 to 10000 nM in [8], 100 to 1000 nM in assay [9] and 100 to 1000 nM in assay [10].
Consider `C=CC(=O)N1CC[C@H](C(=O)N(C)[C@H](C(=O)N[C@H]2Cc3cc(O)cc(c3)-c3ccc4c(c3)c(c(-c3cccnc3[C@@H]3CCCO3)n4CC)CC(C)(C)COC(=O)[C@@H]3CCCN(N3)C2=O)C(C)C)C1` (atropisomer, axis not shown) [Example A281], for which the IC50 was 100 to 1000 nM in assay [1]; 100 to 1000 nM in assay [2]; 10 to 100 nM and 100 to 1000 nM in assay [3]; 10 to 100 nM and 100 to 1000 nM in assay [4]; 10 to 100 nM in assay [5]; 10 to 100 nM and 100 to 1000 nM in assay [6]. Moreover, the 50% inhibitory concentration (IC50) in assay [7] was in the range of 100 to 1000 nM; in assay [8], 1000 to 10000 nM; in assay [9], 100 to 1000 nM; in assay [10], 100 to 1000 nM.
For the compound `C=CC(=O)N1CC[C@H](C(=O)N(C)[C@H](C(=O)N[C@H]2Cc3nc(n(C)n3)-c3ccc4c(c3)c(c(-c3cccnc3[C@H](C)OC)n4CC)CC(C)(C)COC(=O)[C@@H]3CCCN(N3)C2=O)C(C)C)C1` (atropisomer, axis not shown) [Example A314], the 50% inhibitory concentration (IC50) in assay [1] was 100 to 1000 nM; in assay [2], 1000 to 10000 nM; in assay [3] it was 100 to 1000 nM; in [4], 100 to 1000 nM; in [5] it was 100 to 1000 nM; in assay [6], 100 to 1000 nM. The half-maximal inhibitory concentration (IC50) in assay [7] fell in the range of 100 to 1000 nM; in assay [8], 1000 to 10000 nM; in assay [9], 1000 to 10000 nM; in [10] it was 1000 to 10000 nM.
As to `C=CC(=O)N1CC[C@H](C(=O)N(C)[C@H](C(=O)N[C@H]2Cc3csc(n3)-c3ccc4c(c3)c(c(-c3cccnc3[C@H](C)OC)n4CC)CC(C)(C)COC(=O)[C@@H]3CCCN(N3)C2=O)C(C)C)C1` (atropisomer, axis not shown) [Example A330], the concentration for half-maximal inhibition (IC50) in assay [1] is 100 to 1000 nM; in assay [2], 1000 to 10000 nM; in [3], 100 to 1000 nM; in [4], 1000 to 10000 nM; in assay [5], 100 to 1000 nM; in assay [6], 100 to 1000 nM. In addition, the half-inhibitory concentration (IC50) in assay [7], in assay [8], in [9] and in [10] was 1000 to 10000 nM throughout.
`C=CC(=O)N1CC[C@]2(C1)CN(C(=O)N(C)[C@H](C(=O)N[C@H]1Cc3nc(cs3)-c3ccc4c(c3)c(c(-c3cccnc3[C@H](C)OC)n4CC)CC(C)(C)COC(=O)[C@@H]3CCCN(N3)C1=O)C(C)C)CCO2` (atropisomer, axis not shown) [Example A354]: the IC50 in [1] lay in the range of 10 to 100 nM; in [2], 100 to 1000 nM; in [3] it was 10 to 100 nM; in [4], 100 to 1000 nM; in assay [5], 10 to 100 nM; in [6], 100 to 1000 nM. The IC50 in assay [7], in assay [8], in [9] and in assay [10] was 100 to 1000 nM in each case.
Turning to `C=CC(=O)N1CC[C@@]2(C1)OCN([C@H](C(=O)N[C@H]1Cc3cccc(c3)-c3ccc4c(c3)c(c(-c3cccnc3[C@H](C)OC)n4CC)CC(C)(C)COC(=O)[C@@H]3CCCN(N3)C1=O)C(C)C)C2=O` (atropisomer, axis not shown) [Example A358], the IC50 in [1] lay in the range of 1000 to 10000 nM; in assay [2] it was 100 to 1000 nM; in assay [3], 100 to 1000 nM; in [4], 100 to 1000 nM; in assay [5], 100 to 1000 nM; in assay [6] it was 100 to 1000 nM. In addition, the concentration for half-maximal inhibition (IC50) in [7], in assay [8], in [9] and in [10] was 1000 to 10000 nM in each case.
As for `CO[C@@H](C)c1ncccc1-c1c2c3cc(ccc3n1CC(F)(F)F)-c1csc(n1)C[C@H](NC(=O)CCOC1CN(C(=O)C#CC(C)(C)N3CCC3)C1)C(=O)N1CCC[C@H](N1)C(=O)OCC(C)(C)C2` (atropisomer, axis not shown) [Example A363], the concentration for half-maximal inhibition (IC50) in [1] is 1000 to 10000 nM; in assay [2], 1000 to 10000 nM; in assay [3], 10 to 100 nM; in assay [4], 1000 to 10000 nM; in assay [5], 1000 to 10000 nM; in assay [6], 10 to 100 nM. Further, the IC50 was 1000 to 10000 nM in assay [7], over 10000 nM in [8], 1000 to 10000 nM in [9] and 1000 to 10000 nM in [10].
Consider `C=CC(=O)N(C)C[C@H]1CCN1C(=O)N(C)[C@H](C(=O)N[C@H]1Cc2nc(cs2)-c2ccc3c(c2)c(c(-c2cccnc2[C@H](C)OC)n3CC)CC(C)(C)COC(=O)[C@@H]2CCCN(N2)C1=O)C(C)C` (atropisomer, axis not shown) [Example A369], for which the concentration for half-maximal inhibition (IC50) was 10 to 100 nM in [1]; 100 to 1000 nM in assay [2]; 100 to 1000 nM in [3]; 100 to 1000 nM in assay [4]; 100 to 1000 nM in assay [5]; 100 to 1000 nM in assay [6]. Further, the IC50 in assay [7] lay within 100 to 1000 nM; in assay [8], 1000 to 10000 nM; in assay [9], 1000 to 10000 nM; in assay [10], 100 to 1000 nM.
For `C=CC(=O)N1CC[C@H](C(=O)N(C)[C@H](C(=O)N[C@H]2Cc3cccc(c3)-c3ccc4c(c3)c(c(-c3cccnc3[C@H](C)OC)n4CC)CC(C)(C)COC(=O)[C@@H]3CCCN(N3)C2=O)C(C)C)[C@H]1C` (atropisomer, axis not shown) [Example A373], the 50% inhibitory concentration (IC50) was 1000 to 10000 nM in assay [1]; 1000 to 10000 nM in [2]; 100 to 1000 nM in [3]; 100 to 1000 nM in [4]; 100 to 1000 nM in [5]; 100 to 1000 nM in assay [6]. Besides, the IC50 in [7], in assay [8], in [9] and in [10] was 1000 to 10000 nM each time.
